Measured values from paper PMC4660620, “Aspidosperma (Apocynaceae) plant cytotoxicity and activity towards malaria parasites. Part II: experimental studies with Aspidosperma ramiflorum in vivo and in vitro” (Memórias do Instituto Oswaldo Cruz, 2015).

Test system: Plasmodium berghei, the NK65 strain
Assay: Drug suppressive test against P. berghei in mice
Assay type: in vivo, Plasmodium berghei in Swiss outbred mice
Protocol: Adult Swiss outbred mice (20 ± 2 g weigh) were inoculated by the intraperitoneal route with 1 × 10^5 red blood cells infected withP. berghei, the NK65 strain. Groups of 20-30 infected mice were kept together for 2-24 h, then were divided randomly in groups of up to six animals per cage and were treated by gavage for three consecutive days with 25 mg/Kg or 50 mg/Kg of the test compounds diluted in DMSO 3% (v/v). Two control groups were used and either received CQ (20 mg/kg, diluted in water) or the drug vehicle. Smears prepared from the tail blood of the mice on days 5-10 post-infection were methanol-fixed, stained with Giemsa and examined microscopically.

## CCN(CC)CCCC(C)Nc1ccnc2cc(Cl)ccc12 (stereo not drawn) [Chloroquine, chloroquine]
20 mg/kg, increase compared to survival of nontreated controls
  Mice survival (increase): > 8 days
mice, 20 mg/kg by gavage, three consecutive days
  Mice survival: > 30 days
mice, 20 mg/kg by gavage, three consecutive days, in relation to untreated mice
  Parasitaemia reduction at day 10: 100%
